Active and inactive are the calls of the source.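 Rule for the calls: active = half-maximal concentration for changing protein binding to DNA, from the fitted dose curve, below 10 micromolar; inactive = the rest.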

This assay addresses Nuclear receptor subfamily 1 group D member 1 (Homo sapiens) (UniProt P20393). In words: Rev-erbα–DNA interaction modulators – biochemical, FITC-DNA, fluorescence polarization, dose response (AID 1259321). Particulars: Rev-erb alpha-FITC-DNA binding.

Nuclear receptor subfamily 1 group D member 1 (Homo sapiens), sequence (P20393 whole entry, looked up): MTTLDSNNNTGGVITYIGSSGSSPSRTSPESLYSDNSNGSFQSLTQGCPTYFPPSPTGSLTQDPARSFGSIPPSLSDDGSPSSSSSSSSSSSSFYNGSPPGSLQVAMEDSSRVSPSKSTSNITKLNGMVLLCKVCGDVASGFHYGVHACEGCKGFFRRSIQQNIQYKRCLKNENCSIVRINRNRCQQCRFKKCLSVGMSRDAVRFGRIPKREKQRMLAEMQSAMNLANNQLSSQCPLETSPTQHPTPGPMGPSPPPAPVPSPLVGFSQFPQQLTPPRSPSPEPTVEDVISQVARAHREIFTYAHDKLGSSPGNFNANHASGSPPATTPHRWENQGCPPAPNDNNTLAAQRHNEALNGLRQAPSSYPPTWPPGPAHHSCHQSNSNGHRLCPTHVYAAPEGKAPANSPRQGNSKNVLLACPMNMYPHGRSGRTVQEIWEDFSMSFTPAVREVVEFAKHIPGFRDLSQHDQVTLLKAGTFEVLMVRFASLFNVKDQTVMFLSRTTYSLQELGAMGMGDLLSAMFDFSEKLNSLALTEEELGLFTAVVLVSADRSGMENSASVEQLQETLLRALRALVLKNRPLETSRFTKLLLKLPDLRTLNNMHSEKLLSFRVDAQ

`COc1ccc(-c2nc3c4ccccc4ccn3c2C=O)cc1`: the IC50 (usually the concentration that inhibits the measured activity by half) was “inactive”.

Take `Fc1cccc2sc(Nc3nc4cc5c(cc4s3)OCCO5)nc12`: the IC50 result is “inactive”. For `CCn1c2ccccc2c2cc(C3C(C#N)=C(C)NC(C)=C3C#N)ccc21` the value was > 40 µM (inactive); for `CC1(C)Cc2c(c(N3CCCC3)nc3sc(C(=O)Nc4ccccc4)c(N)c23)CO1`, 3.37 µM; for `N#CC(C#N)=C1C=C2C=C(N3CCOCC3)CCC2CC1` (stereo not given), 4.31 µM.

`COc1cc2[nH]c(=S)nc(NCCc3ccc(C)cc3)c2cc1OC`: the IC50 is > 40 µM (inactive). For `COc1ccc(NC(=O)c2ccc(C(=O)c3cc(OC)ccc3OC)cc2)cc1` the value was 1.67 µM; for `O=C(CSc1ncnc2c1sc1ccccc12)Nc1ccc(Br)cc1`, 2.97 µM; for `CC1(Cc2ccccc2OC(F)(F)F)C(=O)Nc2ccc(-c3ccsc3)cc21` (stereo not given), 1.7 µM. The value for `COc1ccc(-c2cc3c(=O)n(CC(=O)Nc4ccc(C(C)=O)cc4)ncn3n2)cc1` was “inactive”; that for `Cc1ccc(-c2nc3ccccc3s2)cc1NC(=O)c1cc(-n2cnnc2)ccc1Cl` was “inactive”. For `CCCCCCc1cc2cc(C(=O)Nc3ccccc3)c(=O)oc2cc1O` the value was > 40 µM (inactive); for `COc1cc2c3nnc(-c4ccc(F)cc4)c-3cn(Cc3ccccc3)c2cc1OC`, “inactive”.

`CCn1c(SCC(=O)c2c[nH]c3ccccc23)nnc1-c1cccs1`: the IC50 is > 40 µM (inactive).

As for `Cc1cc(=O)oc2cc(OCC3CC(c4ccc(Br)cc4)=NO3)ccc12` (stereo not given), the half-inhibitory concentration (IC50) was 1.04 µM. The value for `COC(=O)c1ccc(Cn2ccc3ccc(-c4ccc5ccn(C(=O)C6CCCCC6)c5c4)cc32)cc1` was 6.33 µM. In the case of `COc1ccc(C(=O)c2c[nH]c(C(=O)NCc3cccs3)c2)cc1`, the IC50 is > 40 µM (inactive). The value for `COc1cc(C(=O)Nc2nnc(-c3sccc3C)s2)cc(OC)c1OC` was 4.24 µM; that for `N#Cc1c(-c2ccc(F)cc2)cc(C2CC2)nc1SCC(=O)c1cccs1` was > 40 µM (inactive); that for `Cc1cc(OC(C)C(=O)NCc2ccccn2)c2c(C)c(Cc3ccccc3)c(=O)oc2c1` (stereo not given) was 2.52 µM. The value for `O=C(CSc1nc2ccccc2nc1N1CCCCC1)NCc1ccc(Cl)cc1Cl` was 7.15 µM; that for `CCOc1cc(N(CC)CC)ccc1/C=C(/C#N)c1nc2ccccc2[nH]1` was “inactive”. In the case of `CCCCN(C)C1=CC2=CC(=C(C#N)C#N)CCC2CC1` (stereo not given), the IC50 is > 40 µM (inactive). The value for `CN1C(=O)C(=Cc2ccc(N3CCOCC3)o2)C(=O)N(C)C1=O` was 1.36 µM.

`COC(=O)c1sc2nc3c(cc2c1N)C(=O)CC(C)(C)C3`: the IC50 result was “inactive”. The value for `Cc1nc(SCc2nc3ccccc3[nH]2)c2oc3cc(Br)ccc3c2n1` was 9.38 µM. For `COCCn1c(=NC(=O)CCS(=O)(=O)c2ccccc2)sc2cc(C(=O)OC)ccc21` the value was > 40 µM (inactive); for `COc1ccc(Cl)cc1C(=O)Nc1cccc(-c2ccc3nncn3n2)c1`, 7.26 µM. The value for `O=C(COC(=O)c1sc2cc(F)ccc2c1Cl)Nc1ncc(Cl)cc1Cl` was > 40 µM (inactive); that for `O=C(CCn1c(SCC(=O)c2ccccc2)nc2ccccc2c1=O)NCc1ccc(F)cc1` was > 40 µM (inactive); that for `COC(=O)c1cc2cc(Cl)ccc2nc1SC` was 2.53 µM. For `COc1cc(C(=O)Nc2nc(-c3ccc(Cl)cc3)c(C)s2)ccc1OCC(=O)Nc1ccc(F)cc1`, the IC50 is > 40 µM (inactive).

Consider `Clc1ccc(-c2ccnc(Oc3cc(Cl)ccc3Cl)n2)cc1`, for which the IC50 was > 40 µM (inactive). For `CCC(C)NC(=O)Cc1c(OC)ccc2cc(Br)ccc12` (stereo not given) the value was 8.21 µM; for `O=c1c2ccccc2nc2sc(Nc3ccc(F)cc3)nn12`, “inactive”; for `COc1ccc2[nH]c(C(=O)Nc3ccccc3Cl)cc2c1`, > 40 µM (inactive). The value for `CCN(CC)C(=O)CSC1=C(C#N)C(c2cccs2)C=C(C)N1` (stereo not given) was “inactive”; that for `Cc1ccc(-c2nc3c(c(=O)c4ccccc4n3C)c(=O)n2-c2ccc(F)cc2)cc1` was > 40 µM (inactive). The value for `COc1cc(-c2ccc3c(=O)c4ccccc4sc3c2)cc(OC)c1OC` was 2.86 µM; that for `Cc1cccc(N2CCN(c3ccc4cc(S(=O)(=O)N5CCCCC5)ccc4n3)CC2)c1C` was > 40 µM (inactive). Take `CCc1cc2cc3c(cc2nc1SCC(=O)Nc1nccs1)OCO3`: the IC50 is > 40 µM (inactive). `COCCN1C(=O)/C(=C/c2ccc(N3CCCC3)cc2C)SC1=S`: the IC50 was 6.19 µM. For `CCC(=O)c1ccc(OCc2ccc(C(=O)c3ccccc3)cc2)cc1` the value was 3.02 µM; for `CCc1cccc(NC(=O)c2ccc(Cn3c(=O)[nH]c4ccsc4c3=O)cc2)c1`, “inactive”; for `CCCCNc1ccc2c3c(cccc13)C(=O)N(CCCC)C2=O`, 2.78 µM. In the case of `Cc1cc(C)c(NC(=O)CSc2nc(COc3ccccc3)nc3ccccc23)c(C)c1`, the IC50 is 3.42 µM.

`COc1ccc(C(=O)Nc2ccc(C(F)(F)F)n(C)c2=O)cc1`: the IC50 was > 40 µM (inactive). For `CN1/C(=C\C=C2C(=O)NC(=S)NC2=O)C(C)(C)c2ccccc21` the value was 6.96 µM; for `Cc1ccc(Cl)cc1N1CCN(S(=O)(=O)c2ccc(-c3ccc(=O)[nH]n3)o2)CC1`, “inactive”. The value for `Cc1cc(Br)ccc1NC(=O)c1sc2ncn(CC(=O)N3CCN(c4ccccn4)CC3)c(=O)c2c1C` was 5.34 µM. For `O=C(CCCOc1ccc(Cl)cc1Cl)NNC(=O)c1ccc(NC(=O)c2ccccc2)cc1` the value was 5.81 µM; for `CCOC(=O)c1cc2c(=O)c3ccccc3oc2nc1C`, > 40 µM (inactive); for `COc1ccc2c(COC(=O)c3n[nH]c4ccccc34)cc(=O)oc2c1`, > 40 µM (inactive).

On to `COc1ccc(-c2ccc(-c3noc(-c4ccccc4F)n3)c(OC)n2)cc1`, for which the IC50 was 1.33 µM. For `COC(=O)c1ccc(Cn2ccc3ccc(-c4ccc5ccn(C(=O)c6ccccc6C)c5c4)cc32)cc1` the value was 9.87 µM; for `Cc1ccc(-c2csc3nc[nH]c(=S)c23)cc1C`, 2.1 µM; for `COc1ccc(-c2c(C#Cc3ccsc3)c3cc(-c4ccc5c(c4)OCCO5)ccc3n2C)cc1`, > 40 µM (inactive). In the case of `C[n+]1ccc(/C=C/c2c[nH]c3ccccc23)cc1`, the IC50 entry was “inactive”. The value for `CCN1C(=O)/C(=C\N2CCN(c3cccc(Cl)c3)CC2)SC1=S` was 8.83 µM. Consider `CCc1cc2c(C)ccc(C)c2nc1SCC(=O)Nc1c[nH]c(=O)[nH]c1=O`, for which the IC50 entry is “inactive”. Consider `COc1cc(/C=C2\SC(=O)N(CCNC(=O)c3sc4cc(F)ccc4c3Cl)C2=O)cc(OC)c1OC`, for which the IC50 was 4.87 µM.

In the case of `N#Cc1c(N)nc(SCC(=O)NCc2ccc3c(c2)OCO3)c(C#N)c1-c1cccs1`, the 50% inhibitory concentration (IC50) is 2.41 µM.

Consider `Cc1ccc(S(=O)(=O)c2c[nH]c3ccc(Cl)cc3c2=O)cc1`, for which the IC50 was > 40 µM (inactive). `Cc1ccc(OCC(=O)Nc2ccc(O)c(-c3nc4ccccc4o3)c2)cc1`: the IC50 is > 40 µM (inactive).

As for `CCOC(=O)c1nnn2c1nc(Nc1cccc(C(F)(F)F)c1)c1ccccc12`, the half-maximal inhibitory concentration (IC50) is 1.86 µM.
